Like-named read-outs stand apart in the source and are kept apart here.
Key:
BRG-1 = BRG-1 (Homo sapiens, UniProt P51532); test: ATPase catalytic activity assay of BRG-1 (ADP-Glo); format: biochemical; details: ATPase catalytic activity, ADP-Glo; for IC50: read-out: BRG1 IC50 (μM)*; for Emax: read-out: BRG1 Max % Inhibition
Method in brief: (§1)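 Luminescent ADP-Glo readout of ADP generated by ATP hydrolysis. Post-reaction: ATP depletion reagent, RT 40 min; detection reagent converting ADP→ATP, RT 60 min; luminescence read.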

BRM = BRM (Homo sapiens, UniProt P51531); test: ATPase catalytic activity assay of BRM (ADP-Glo); format: biochemical; details: for IC50: read-out: BRM IC50 (μM)*
Method in brief: as §1

Chain of BRG-1 (P51532 whole entry): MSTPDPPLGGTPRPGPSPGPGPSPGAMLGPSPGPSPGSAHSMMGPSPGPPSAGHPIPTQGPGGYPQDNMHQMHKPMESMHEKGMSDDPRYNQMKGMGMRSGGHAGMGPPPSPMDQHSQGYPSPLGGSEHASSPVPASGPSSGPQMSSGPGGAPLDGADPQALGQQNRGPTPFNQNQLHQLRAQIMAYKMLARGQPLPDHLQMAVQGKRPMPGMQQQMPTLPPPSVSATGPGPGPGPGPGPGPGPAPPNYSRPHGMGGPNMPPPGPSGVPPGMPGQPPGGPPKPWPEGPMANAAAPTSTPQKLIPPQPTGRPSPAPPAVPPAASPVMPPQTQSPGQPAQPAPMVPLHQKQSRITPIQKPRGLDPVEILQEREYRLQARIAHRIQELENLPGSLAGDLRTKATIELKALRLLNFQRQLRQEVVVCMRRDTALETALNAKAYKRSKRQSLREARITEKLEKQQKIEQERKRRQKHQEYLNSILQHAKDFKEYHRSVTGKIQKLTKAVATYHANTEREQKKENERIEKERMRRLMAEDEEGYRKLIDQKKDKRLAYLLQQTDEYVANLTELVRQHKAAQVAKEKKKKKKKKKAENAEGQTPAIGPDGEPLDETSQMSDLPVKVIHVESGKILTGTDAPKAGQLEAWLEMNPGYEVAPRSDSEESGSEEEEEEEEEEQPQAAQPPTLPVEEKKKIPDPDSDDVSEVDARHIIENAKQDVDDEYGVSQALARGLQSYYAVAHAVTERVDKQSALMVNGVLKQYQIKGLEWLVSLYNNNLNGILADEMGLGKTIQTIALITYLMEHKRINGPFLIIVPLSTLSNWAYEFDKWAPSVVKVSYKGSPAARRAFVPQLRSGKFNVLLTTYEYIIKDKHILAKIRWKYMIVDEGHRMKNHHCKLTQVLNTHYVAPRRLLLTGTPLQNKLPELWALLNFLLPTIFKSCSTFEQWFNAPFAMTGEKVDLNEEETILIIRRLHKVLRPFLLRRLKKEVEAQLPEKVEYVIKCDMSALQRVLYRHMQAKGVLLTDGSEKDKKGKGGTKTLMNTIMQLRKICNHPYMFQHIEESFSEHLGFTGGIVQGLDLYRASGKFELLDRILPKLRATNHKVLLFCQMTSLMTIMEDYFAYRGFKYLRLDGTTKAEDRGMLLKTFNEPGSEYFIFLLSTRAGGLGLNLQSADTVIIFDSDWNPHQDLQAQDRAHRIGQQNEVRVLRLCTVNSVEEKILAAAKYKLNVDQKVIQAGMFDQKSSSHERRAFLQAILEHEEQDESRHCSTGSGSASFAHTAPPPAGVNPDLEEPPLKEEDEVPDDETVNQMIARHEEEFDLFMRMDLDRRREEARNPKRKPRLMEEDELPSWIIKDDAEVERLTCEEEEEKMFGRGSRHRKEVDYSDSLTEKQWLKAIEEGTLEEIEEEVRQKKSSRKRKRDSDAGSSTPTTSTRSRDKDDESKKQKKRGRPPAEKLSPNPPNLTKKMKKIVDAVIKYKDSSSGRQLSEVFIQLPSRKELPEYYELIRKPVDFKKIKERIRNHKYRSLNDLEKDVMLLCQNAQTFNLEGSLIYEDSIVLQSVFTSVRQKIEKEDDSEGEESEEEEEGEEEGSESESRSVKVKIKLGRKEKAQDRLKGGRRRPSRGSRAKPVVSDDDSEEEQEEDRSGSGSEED
Chain of BRM (P51531 whole entry): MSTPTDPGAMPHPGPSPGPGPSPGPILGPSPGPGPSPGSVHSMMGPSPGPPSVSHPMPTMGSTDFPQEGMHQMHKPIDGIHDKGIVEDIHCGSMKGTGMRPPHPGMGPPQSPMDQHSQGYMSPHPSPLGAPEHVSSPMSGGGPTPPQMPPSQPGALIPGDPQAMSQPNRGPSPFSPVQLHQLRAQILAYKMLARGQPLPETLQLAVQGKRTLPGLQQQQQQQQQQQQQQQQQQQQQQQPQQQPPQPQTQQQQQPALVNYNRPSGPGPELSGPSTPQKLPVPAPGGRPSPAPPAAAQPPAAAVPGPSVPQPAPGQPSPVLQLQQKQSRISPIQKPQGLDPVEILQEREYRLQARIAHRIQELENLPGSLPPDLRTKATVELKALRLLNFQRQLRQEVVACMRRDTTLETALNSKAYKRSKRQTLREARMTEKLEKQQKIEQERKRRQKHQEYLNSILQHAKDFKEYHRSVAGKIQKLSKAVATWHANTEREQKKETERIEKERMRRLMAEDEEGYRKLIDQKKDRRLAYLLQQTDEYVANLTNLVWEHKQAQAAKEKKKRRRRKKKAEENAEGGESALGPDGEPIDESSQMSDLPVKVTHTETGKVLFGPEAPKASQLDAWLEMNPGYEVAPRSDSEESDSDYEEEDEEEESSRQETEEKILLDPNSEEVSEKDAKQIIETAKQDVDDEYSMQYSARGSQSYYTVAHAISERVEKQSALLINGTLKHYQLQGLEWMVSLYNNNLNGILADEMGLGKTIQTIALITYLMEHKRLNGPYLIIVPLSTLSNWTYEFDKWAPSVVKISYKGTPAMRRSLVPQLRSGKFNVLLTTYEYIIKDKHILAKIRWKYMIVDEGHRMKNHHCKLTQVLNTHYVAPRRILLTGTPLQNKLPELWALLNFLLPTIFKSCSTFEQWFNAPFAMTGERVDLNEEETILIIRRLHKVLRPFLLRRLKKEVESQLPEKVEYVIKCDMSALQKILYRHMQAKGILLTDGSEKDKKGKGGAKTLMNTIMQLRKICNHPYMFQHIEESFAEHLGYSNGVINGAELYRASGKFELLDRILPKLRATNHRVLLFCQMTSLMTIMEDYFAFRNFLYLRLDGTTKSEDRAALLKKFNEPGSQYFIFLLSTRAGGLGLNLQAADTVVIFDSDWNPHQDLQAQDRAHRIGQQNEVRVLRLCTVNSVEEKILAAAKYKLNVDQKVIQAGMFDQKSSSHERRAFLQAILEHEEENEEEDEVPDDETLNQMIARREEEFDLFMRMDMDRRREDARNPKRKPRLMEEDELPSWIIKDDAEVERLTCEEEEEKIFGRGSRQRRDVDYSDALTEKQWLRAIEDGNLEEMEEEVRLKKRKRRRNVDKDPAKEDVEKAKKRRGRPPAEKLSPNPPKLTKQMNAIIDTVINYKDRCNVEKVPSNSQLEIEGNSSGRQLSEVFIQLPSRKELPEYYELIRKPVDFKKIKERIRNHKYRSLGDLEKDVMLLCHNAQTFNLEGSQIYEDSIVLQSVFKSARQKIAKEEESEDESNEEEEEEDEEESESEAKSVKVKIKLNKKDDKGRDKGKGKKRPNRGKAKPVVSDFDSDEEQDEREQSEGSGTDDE

SMILES | IC50 (BRG-1; 30 nM BRG-1, 400 μM ATP) [µM] | Emax (BRG-1; 30 nM BRG-1, 400 μM ATP) [%] | BRM Max % Inhibition (BRM; 30 nM BRM, 400 μM ATP) [%] | IC50 (BRM; 30 nM BRM, 400 μM ATP) [µM] | IC50 (BRG-1) [µM] | Emax (BRG-1) [%] | BRM Max % Inhibition (BRM) [%] | IC50 (BRM) [µM]
CC1(C#N)CCOc2ccc(C(=O)NCC(=O)Nc3nc(-c4cccc(C5COC5)c4)cs3)cc21 (stereo in doubt) [Compound 423, (S)-4-cyano-4-methyl-N-(2-((4-(3-(oxetan-3-yl)phenyl)thiazol-2-yl)amino)-2-oxoethyl)chromane-6-carboxamide] | 0.1 to 1 | > 95 | >95 | < 0.1 | – | – | – | –
CC1(C#N)CCOc2ccc(C(=O)NCC(=O)Nc3nc(-c4cccc([C@H]5CC5(F)F)c4)cs3)cc21 (stereo in doubt) [Compound 428, (S)-4-cyano-N-(2-((4-(3-((R)-2,2-difluorocyclopropyl)phenyl)thiazol-2-yl)amino)-2-oxoethyl)-4-methylchromane-6-carboxamide] | 0.1 to 1 | > 95 | >95 | < 0.1 | – | – | – | –
CC1(C#N)CCOc2ccc(C(=O)NCC(=O)Nc3nc(-c4cccc([C@@H]5CC5(F)F)c4)cs3)cc21 (stereo in doubt) [Compound 429, (S)-4-cyano-N-(2-((4-(3-((S)-2,2-difluorocyclopropyl)phenyl)thiazol-2-yl)amino)-2-oxoethyl)-4-methylchromane-6-carboxamide] | 1 to 5 | > 95 | >95 | < 0.1 | – | – | – | –
COc1cccc(-c2csc(NC(=O)CNC(=O)c3ccc4c(c3)C(C)(C#N)CCO4)n2)c1 (stereo in doubt) [Compound 431, (S)-4-cyano-N-(2-((4-(3-methoxyphenyl)thiazol-2-yl)amino)-2-oxoethyl)-4-methylchromane-6-carboxamide] | 0.1 to 1 | > 95 | >95 | < 0.1 | – | – | – | –
Cc1cncc(-c2cccc(-c3csc(NC(=O)CNC(=O)c4ccc5c(c4)C(C)(CO)CC5)n3)c2)n1 (stereo in doubt) [Compound 432, (S)-3-(hydroxymethyl)-3-methyl-N-(2-((4-(3-(6-methylpyrazin-2-yl)phenyl)thiazol-2-yl)amino)-2-oxoethyl)-2,3-dihydro-1H-indene-5-carboxamide] | 0.1 to 1 | > 95 | >95 | < 0.1 | – | – | – | –
CC1(C#N)CCOc2ccc(C(=O)NCC(=O)Nc3nc(-c4cccc(-c5ccncc5)c4)cs3)cc21 (stereo in doubt) [Compound 440, (S)-4-cyano-4-methyl-N-(2-oxo-2-((4-(3-(pyridin-4-yl)phenyl)thiazol-2-yl)amino)ethyl)chromane-6-carboxamide] | < 0.1 | > 95 | >95 | < 0.1 | – | – | – | –
CC1(C#N)CCOc2ccc(C(=O)NCC(=O)Nc3nc(-c4cccc(C(F)F)c4)cs3)cc21 (stereo in doubt) [Compound 442, (S)-4-cyano-N-(2-((4-(3-(difluoromethyl)phenyl)thiazol-2-yl)amino)-2-oxoethyl)-4-methylchromane-6-carboxamide] | 0.1 to 1 | > 95 | >95 | < 0.1 | – | – | – | –
Cc1nccc(-c2cccc(-c3csc(NC(=O)CNC(=O)c4cccc(S(=O)(=O)C(C)C)c4)n3)c2)n1 [Compound 13, 3-(isopropylsulfonyl)-N-(2-((4-(3-(2-methylpyrimidin-4-yl)phenyl)thiazol-2-yl)amino)-2-oxoethyl)benzamide] | – | – | – | – | < 0.1 | > 95 | >95 | < 0.1
CC(C)S(=O)(=O)c1cc(CO)cc(C(=O)NCC(=O)Nc2nc(-c3cccc(-c4ccncc4)c3)cs2)c1 [Compound 15, 3-(hydroxymethyl)-5-(isopropylsulfonyl)-N-(2-oxo-2-((4-(3-(pyridin-4-yl)phenyl)thiazol-2-yl)amino)ethyl)benzamide] | – | – | – | – | > 5 | > 40 | >50 | 1 to 5
Cc1cc(C(=O)NCC(=O)Nc2nc(-c3cccc(-c4ccncc4)c3)cs2)cc(S(=O)(=O)C(C)C)c1C [Compound 16, 3-(isopropylsulfonyl)-4,5-dimethyl-N-(2-oxo-2-((4-(3-(pyridin-4-yl)phenyl)thiazol-2-yl)amino)ethyl)benzamide] | – | – | – | – | > 5 | < 30 | >70 | 0.1 to 1
CC(C)S(=O)(=O)c1cccc(C(=O)NCC(=O)Nc2nc(-c3cccc(CO[C@H]4CC[C@H](O)CC4)c3)cs2)c1 [Compound 17, N-(2-((4-(3-((((1R,4R)-4-hydroxycyclohexyl)oxy)methyl)phenyl)thiazol-2-yl)amino)-2-oxoethyl)-3-(isopropylsulfonyl)benzamide] | – | – | – | – | > 5 | > 60 | >90 | 0.1 to 1
Cc1cc(-c2cccc(-c3csc(NC(=O)CNC(=O)c4cccc(S(=O)(=O)C(C)C)c4)n3)c2)cc(C)n1 [Compound 18, N-(2-((4-(3-(2,6-dimethylpyridin-4-yl)phenyl)thiazol-2-yl)amino)-2-oxoethyl)-3-(isopropylsulfonyl)benzamide] | – | – | – | – | < 0.1 | > 95 | >95 | < 0.1
CC(C)S(=O)(=O)c1cccc(C(=O)NCC(=O)Nc2nc(-c3cccc(-c4ccnc(C(F)(F)F)c4)c3)cs2)c1 [Compound 19, 3-(isopropylsulfonyl)-N-(2-oxo-2-((4-(3-(2-(trifluoromethyl)pyridin-4-yl)phenyl)thiazol-2-yl)amino)ethyl)benzamide] | – | – | – | – | 1 to 5 | – | >90 | 0.1 to 1
Cc1cc(C(=O)NCC(=O)Nc2nc(-c3cccc(-c4ccncc4)c3)cs2)cc(S(=O)(=O)C(C)C)c1 [Compound 20, 3-(isopropylsulfonyl)-5-methyl-N-(2-oxo-2-((4-(3-(pyridin-4-yl)phenyl)thiazol-2-yl)amino)ethyl)benzamide] | – | – | – | – | > 5 | < 30 | >60 | 0.1 to 1

Continued, values first:

IC50 (BRG-1; 30 nM BRG-1, 400 μM ATP) [µM] | Emax (BRG-1; 30 nM BRG-1, 400 μM ATP) [%] | BRM Max % Inhibition (BRM; 30 nM BRM, 400 μM ATP) [%] | IC50 (BRM; 30 nM BRM, 400 μM ATP) [µM] | IC50 (BRG-1) [µM] | Emax (BRG-1) [%] | BRM Max % Inhibition (BRM) [%] | IC50 (BRM) [µM] | SMILES
> 5 | > 80 | >80 | 1 to 5 | – | – | – | – | C[C@@H]1CN(c2cccc(-c3csc(NC(=O)CNC(=O)c4ccc5c(c4)C(C)(C#N)COC5)n3)n2)C[C@H](C)O1 (stereo in doubt) [Compound 421, (S)-4-cyano-N-(2-((4-(6-((cis)-2,6-dimethylmorpholino)pyridin-2-yl)thiazol-2-yl)amino)-2-oxoethyl)-4-methylisochromane-6-carboxamide]
1 to 5 | > 95 | >95 | 0.1 to 1 | – | – | – | – | CC1(C#N)CCOc2ccc(C(=O)NCC(=O)Nc3nc(-c4cccc(C5(F)COC5)c4)cs3)cc21 (stereo in doubt) [Compound 422, (S)-4-cyano-N-(2-((4-(3-(3-fluorooxetan-3-yl)phenyl)thiazol-2-yl)amino)-2-oxoethyl)-4-methylchromane-6-carboxamide]
> 5 | > 85 | >85 | 0.1 to 1 | – | – | – | – | C[C@@H]1CN(c2cccc(-c3csc(NC(=O)CNC(=O)c4cccc([C@H]5COC[C@H]5O)c4)n3)n2)C[C@H](C)O1 (stereo in doubt) [Compound 425, N-(2-((4-(6-((cis)-2,6-dimethylmorpholino)pyridin-2-yl)thiazol-2-yl)amino)-2-oxoethyl)-3-((trans)-4-hydroxytetrahydrofuran-3-yl)benzamide]
> 5 | > 85 | >85 | 0.1 to 1 | – | – | – | – | C[C@@H]1CN(c2cccc(-c3csc(NC(=O)CNC(=O)c4ccnc(C(C)(C#N)CO)c4)n3)c2)C[C@H](C)O1 (stereo in doubt) [Compound 427, 2-((R)-2-cyano-1-hydroxypropan-2-yl)-N-(2-((4-(3-((cis)-2,6-dimethylmorpholino)phenyl)thiazol-2-yl)amino)-2-oxoethyl)isonicotinamide]
1 to 5 | > 95 | >95 | 0.1 to 1 | – | – | – | – | CC1(C#N)CCOc2ccc(C(=O)NCC(=O)Nc3nc(-c4cccc(C(F)F)n4)cs3)cc21 (stereo in doubt) [Compound 430, (S)-4-cyano-N-(2-((4-(6-(difluoromethyl)pyridin-2-yl)thiazol-2-yl)amino)-2-oxoethyl)-4-methylchromane-6-carboxamide]
1 to 5 | > 95 | >95 | 0.1 to 1 | – | – | – | – | CC1(C#N)CCOc2ccc(C(=O)NCC(=O)Nc3nc(-c4cccc(C5CC5)n4)cs3)cc21 (stereo in doubt) [Compound 439, (S)-4-cyano-N-(2-((4-(6-cyclopropylpyridin-2-yl)thiazol-2-yl)amino)-2-oxoethyl)-4-methylchromane-6-carboxamide]
> 5 | > 90 | >90 | 0.1 to 1 | – | – | – | – | C[C@@H]1CN(c2cccc(-c3csc(NC(=O)CNC(=O)c4cccc(C5(F)CCOC5)c4)n3)n2)C[C@H](C)O1 (stereo in doubt) [Compound 441, N-(2-((4-(6-((cis)-2,6-dimethylmorpholino)pyridin-2-yl)thiazol-2-yl)amino)-2-oxoethyl)-3-((R)-3-fluorotetrahydrofuran-3-yl)benzamide]
– | – | – | – | 0.1 to 1 | > 80 | >95 | < 0.1 | CC(C)S(=O)(=O)c1cccc(C(=O)NCC(=O)Nc2nc(-c3cccc(N4C[C@@H](C)O[C@@H](C)C4)c3)cs2)c1 [Compound 14, N-(2-((4-(3-((2S,6R)-2,6-dimethylmorpholino)phenyl)thiazol-2-yl)amino)-2-oxoethyl)-3-(isopropylsulfonyl)benzamide]

Source: patent publication US12685735B2 (Foghorn Therapeutics Inc., priority 2020, dated 2026)
